For 24 molecules, TGI and GI50 results are on record in PubChem BioAssay (NCI).

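Cells were grown in 96-well plates and exposed to each compound for 48 hours at five concentrations; endpoints were interpolated linearly between bracketing concentrations, or set to the highest concentration if not reached. Here, GI50 denotes the concentration required for 50% inhibition of growth. TGI denotes the concentration required for complete inhibition of growth.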 *1 amine or outer side, *2 acyl side, *3 side chain or, on linkers, in order; H or OH if unused. Where a SMILES comes first, the peptide text is derived from it. Bridges are numbered along the chain shown (N, C = ends). [ ]: non-standard residue; d: D form. The star is where a group is joined. ξ: configuration not given here. X34 = O=C(C(CCCCNO[*:3])N[*:1])[*:2]; Fmoc = O=C(OCC1c2ccccc2-c2ccccc21)*; ξW = NC(Cc1c[nH]c2ccccc12)C(=O)O; ξP = O=C(O)C1CCCN1 Bounds are passed on as bounds.

Experiment in all cases: NCI-60 cell line screen, 48 h
In assay [1] the test system is A549 NSCLC.
Assay [2] concerns SK-MEL-2 melanoma.
The test system of assay [3] is NCI-H522 lung.
Assay [4] has as its system HCT-116 colon.
Assay [5] concerns HOP-92 NSCLC.
The test system of assay [6] is MOLT-4 leukemia.
Assay [7] has as its system NCI-H23 lung.
For assay [8], the system named is TK-10 renal.
For assay [9], the system named is HOP-62 NSCLC.
For assay [10], the system named is OVCAR-3 ovarian.
Assay [11] concerns SK-MEL-28 melanoma.

As for `OC1C2[C@@H](O)CCCN2C[C@@H](O)[C@H]1O` (stereo partly specified), the TGI in assay [1], in assay [2], in assay [3], in assay [4], in assay [5] and in assay [6] was over 100 µM throughout. Besides, the TGI in assay [7], in assay [8], in [9], in assay [10] and in [11] was over 100 µM in each case.

As to `O=C(CCCCCCCCC(=O)NN1C(=O)/C(=C\c2ccc(O)c(O)c2)SC1c1ccc(Cl)cc1)NN1C(=O)/C(=C\c2ccc(O)c(O)c2)SC1c1ccc(Cl)cc1` (stereo unspecified), the TGI in assay [1] was over 76.8 µM; in assay [2] it was over 61.8 µM; in assay [3] it was 32.5 µM; in [4] it was over 100 µM; in assay [5], 43.8 µM; in assay [6] it was 15.3 µM. For the same molecule, the TGI was 41.8 µM in [7]; over 100 µM in assay [8]; 31.5 µM in [9]; over 100 µM in assay [10]; over 100 µM in assay [11].

As for `COc1cccc(-c2cc(=O)c3ccccc3o2)c1N`, the TGI in assay [1], in [2], in [3], in assay [4], in [5] and in assay [6] was over 100 µM throughout. Besides, the TGI in assay [7], in assay [8], in assay [9], in assay [10] and in assay [11] was over 100 µM throughout.

Consider `Cc1nc2c(sc(=S)n2-c2ccccc2)c2nc3ncccc3n12`, for which the TGI in assay [1], in [2], in assay [3], in assay [4], in assay [5] and in assay [6] was over 100 µM each time. Besides, the TGI in [7] is over 100 µM; in assay [8], over 100 µM; in assay [9], 90.3 µM; in [10] it was over 100 µM; in [11], over 100 µM.

In the case of `NC(=O)CNC(=O)C1CCCN1C(=O)C1CCCCNOC(=O)CC[C@@H](NC(=O)OCC2c3ccccc3-c3ccccc32)C(=O)NC(Cc2c[nH]c3ccccc23)C(=O)N1` (stereo partly specified) (Fmoc-[dE][ξW][X34][ξP]G-NH2; ester 1-3), the TGI in assay [1], in assay [2], in [3], in [4], in assay [5] and in assay [6] was over 100 µM throughout. Further, the TGI in [7], in assay [8], in assay [9], in assay [10] and in assay [11] was over 100 µM throughout.

Consider `OCC1CCCCCCCCCCC12SCCCS2` (stereo unspecified), for which the TGI in assay [1], in assay [2], in assay [3], in [4], in assay [5] and in [6] was over 100 µM in each case. Besides, the TGI in assay [7], in assay [8], in [9], in assay [10] and in assay [11] was over 100 µM in each case.

`O=C(O)c1cc2c(cc1CC(Cc1ccc3c(c1)CCC3)C(=O)O)CCC2` (stereo unspecified): the TGI in assay [1], in assay [2], in assay [3], in assay [4], in assay [5] and in assay [6] was over 100 µM throughout. In addition, the TGI in assay [7], in assay [8], in [9], in assay [10] and in assay [11] was over 100 µM each time.

As to `Cc1ccc([C@@H]2[C@@H](C(=O)c3ccccn3)[C@H](c3ccc(C)cc3)C[C@](O)(c3ccccn3)[C@H]2C(=O)c2ccccn2)cc1`, the TGI in [1] is over 44.7 µM; in assay [2], over 100 µM; in [3], over 100 µM; in assay [4], over 100 µM; in assay [5], over 100 µM; in assay [6], over 100 µM. Moreover, the TGI was over 100 µM in assay [7]; over 100 µM in assay [8]; over 100 µM in [9]; over 64.4 µM in assay [10]; over 100 µM in assay [11].

For the molecule `O=C(O)CSc1nnc(COc2ccc(Cl)cc2)n1-c1ccccc1`, the TGI in [1], in [2], in assay [3], in assay [4], in assay [5] and in [6] was over 100 µM in each case. Moreover, the TGI in assay [7], in assay [8], in assay [9], in assay [10] and in assay [11] was over 100 µM each time.

Consider `O=C(NNC(=S)Nc1ccc(Cl)cc1)c1cc(-c2ccccc2)nc2ccccc12`, for which the TGI turned out to be 21.3 µM in [1]; 9.89 µM in assay [2]; 23.2 µM in assay [3]; 13.5 µM in [4]; 13.6 µM in assay [5]; 27.7 µM in assay [6]. The TGI in [7] came to 17.2 µM; in assay [8], 21.7 µM; in assay [9] it was 19.6 µM; in assay [10], 8.91 µM; in assay [11] it was 14.1 µM.

For the molecule `COCOC1/C=C/CCCC#C[C@H](C)C(=O)CC1` (stereo partly specified), the TGI in assay [1] is 21.1 µM; in assay [2] it was 31.3 µM; in assay [3], 18.1 µM; in assay [4] it was 5.99 µM; in assay [5] it was 19.2 µM; in assay [6], over 29.4 µM. Further, the TGI was determined as 19.4 µM in assay [7]; 28.6 µM in assay [8]; 34.8 µM in assay [9]; 15.2 µM in assay [10]; 29.4 µM in assay [11].

For `CSc1nc(Cl)c2c(n1)Sc1nc3cc4c(cc3n1C2O)OCCO4` (stereo unspecified), the TGI in assay [1] stood at 14 µM; in [2] it was 29.2 µM; in assay [3], 0.386 µM; in assay [4], 26.6 µM; in [5], 4.41 µM; in assay [6], 16.7 µM. The TGI was found to be 19.9 µM in assay [7]; 32.9 µM in [8]; 23 µM in assay [9]; 2.46 µM in assay [10]; 21.7 µM in [11].

As to `O=c1[nH]n2c(=O)cc[nH]c2c1-c1nnns1`, the TGI in assay [1], in assay [2], in assay [3], in assay [4], in [5] and in [6] was over 100 µM in each case. The TGI in [7], in [8], in assay [9], in assay [10] and in [11] was over 100 µM each time.

For the molecule `CC(C)(N=NC(C)(C)C(=O)NCCO)C(=O)NCCO`, the TGI in assay [1], in [2], in assay [3], in assay [4], in assay [5] and in [6] was over 100 µM each time. The TGI in assay [7], in [8], in [9], in assay [10] and in [11] was over 100 µM in each case.

As to `COc1ccc(C2Oc3c(cc(O)c(OC)c3C)[C@@H]2C)cc1OC` (stereo partly specified), the TGI in [1], in assay [2], in assay [3], in [4], in assay [5] and in assay [6] was over 100 µM each time. Besides, the TGI in [7], in [8], in assay [9], in assay [10] and in [11] was over 100 µM throughout.

Consider `COCOC1/C=C/CCCCC2=C(C)C=C(C1)O2` (stereo unspecified), for which the TGI in [1], in assay [2], in assay [3], in [4], in [5] and in assay [6] was over 100 µM each time. Also, the TGI in assay [7], in assay [8], in [9], in assay [10] and in assay [11] was over 100 µM throughout.

In the case of `COC(=O)C1(C(=O)OC)CC2=C(S(=O)(=O)c3ccccc3)C[C@H](S(=O)(=O)c3ccccc3)[C@H]2C1`, the TGI was over 100 µM in assay [1]; over 100 µM in assay [2]; 92.7 µM in assay [3]; over 100 µM in [4]; 55.9 µM in assay [5]; over 100 µM in assay [6]. In addition, the TGI in assay [7], in [8], in [9], in assay [10] and in assay [11] was over 100 µM in each case.

Regarding `Cc1c(F)c(N)c2c(=O)cc(-c3ccc(NC(=O)CN(C)C)c(F)c3)oc2c1F`, the TGI in assay [1] was over 100 µM; in assay [2], over 100 µM; in assay [3], over 100 µM; in assay [4], over 100 µM; in assay [5], 99.4 µM; in assay [6], over 71.8 µM. In addition, the TGI was over 100 µM in [7]; over 100 µM in [8]; over 100 µM in assay [9]; over 60.9 µM in assay [10]; over 100 µM in [11]. Besides, the GI50 in [5] was over 36.4 µM; in assay [9], over 100 µM.

Turning to `O=C(O)CN(CCNC(=O)OCC1c2ccccc2-c2ccccc21)CCNC(=O)OCC1c2ccccc2-c2ccccc21`, the TGI was found to be 49.1 µM in [1]; 46.6 µM in [2]; 32.3 µM in [3]; 31.9 µM in assay [4]; 42.7 µM in [5]; 49.3 µM in assay [6]. In addition, the TGI in assay [7] amounted to 49.6 µM; in [8], 50.6 µM; in assay [9], 44.7 µM; in assay [10], 35.6 µM; in assay [11], 42.1 µM.

For `C[N+]1=C2[B-](C(C)(C)C)=[N+](C(C)(C)C)[B-]2(C(C)(C)C)[N+](C)=C2[B-](C(C)(C)C)=[N+](C(C)(C)C)[B-]21C(C)(C)C` (stereo unspecified), the TGI in assay [1], in assay [2], in assay [3], in assay [4], in [5] and in assay [6] was over 100 µM in each case. In addition, the TGI in assay [7], in [8], in assay [9], in assay [10] and in [11] was over 100 µM in each case.

`CN1C(=O)N(c2ccccc2)C2(CCN(CC3COc4ccccc4O3)CC2)C1=O` (stereo unspecified): the TGI in assay [1], in [2], in assay [3], in [4], in [5] and in assay [6] was over 100 µM in each case. In addition, the TGI is over 100 µM in assay [7]; over 100 µM in assay [8]; over 100 µM in assay [9]; 89.2 µM in assay [10]; over 100 µM in assay [11].

Turning to `COc1cc(-c2cc(=O)c3cc4c(cc3[nH]2)OCO4)cc(OC)c1O`, the TGI in assay [1], in assay [2], in assay [3], in assay [4], in assay [5] and in assay [6] was over 10 µM throughout. The TGI in assay [7], in assay [8], in assay [9], in assay [10] and in assay [11] was over 10 µM throughout.

As for `CN(C)CCCOc1nc2c(c(=O)n(C)c(=O)n2C)n1C` (tested in a mixture with another compound), the TGI in [1] was over 100 µM; in assay [2], over 100 µM; in assay [3] it was over 100 µM; in assay [4], over 100 µM; in assay [5], over 100 µM; in assay [6] it was 13.9 µM. The TGI in assay [7] is 97.6 µM; in [8], 42.1 µM; in assay [9], over 100 µM; in assay [10], over 100 µM; in assay [11], over 100 µM.

As to `Cn1cc2ccccc2c1-c1nc(N)nc(F)n1`, the TGI in [1], in assay [2], in [3], in assay [4], in [5] and in assay [6] was over 100 µM throughout. Moreover, the TGI in assay [7], in [8], in assay [9], in assay [10] and in [11] was over 100 µM each time.
